This is an account of results in US20230127944A1, “BROAD-SPECTRUM CARBAPENEMS” (priority 2019, published 2023).

What all share (type): cell-based
In assay [1] the test system is P. aeruginosa ΔmexAB-OprM (an efflux pump knockout). In words: broth microdilution MIC assay, P. aeruginosa ΔmexAB-OprM. As to conditions: Pseudomonas aeruginosa, read-out: MIC, P. aeruginosa ΔmexAB-OprM. An outline of the steps:
(§1)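 Growth inhibition was measured by CLSI-based broth microdilution. Log-phase cultures in Mueller-Hinton broth with divalent cations were seeded at 5×10^5 CFU/mL into 2-fold serial compound dilutions and incubated 16-20 hours at 37° C before the MIC was scored by eye.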

For assay [2], the system named is S. aureus ATCC 33591 (methicillin-resistant). The experiment in a line: broth microdilution MIC assay, S. aureus 33591. As to conditions: Staphylococcus aureus, ATCC33591; S. aureus 33591, methicillin-resistant; read-out: MIC, S. aureus 33591. In short, it runs like this: as §1
Assay [3] deals with E. coli ATCC 25922 (wild-type/QC strain). In words: broth microdilution MIC assay, E. coli 25922. As to conditions: Escherichia coli, ATCC25922; read-out: MIC, E. coli 25922. In short, it runs like this:
as §1
A general note: Dilution methods test growth across graded concentrations, often in twofold steps.

In a further assay the test system is S. aureus USA 300. The experiment in a line: broth microdilution MIC assay, S. aureus USA300. As to conditions: Staphylococcus aureus; S. aureus USA300 (MRSA); read-out: MIC, S. aureus USA300. An outline of the steps: as §1
Another assay deals with S. aureus USA 600. In words: broth microdilution MIC assay, S. aureus USA600. As to conditions: Staphylococcus aureus; S. aureus USA600 (MRSA); read-out: MIC, S. aureus USA600. An outline of the steps:
as §1

For assay [4], the system named is P. aeruginosa ATCC 27853 (wild-type/QC strain). In words: broth microdilution MIC assay, P. aeruginosa 27853. As to conditions: Pseudomonas aeruginosa, ATCC27853; read-out: MIC, P. aeruginosa 27853. An outline of the steps: as §1
The test system of a further assay is P. aeruginosa Paeβ-17. In words: broth microdilution MIC assay, P. aeruginosa Paeβ-17. As to conditions: Pseudomonas aeruginosa, read-out: MIC, P. aeruginosa Paeβ-17. In short, it runs like this: as §1
The subject of assay [5] is P. aeruginosa 35151 (hyper-permeable strain). The experiment in a line: broth microdilution MIC assay, P. aeruginosa 35151. As to conditions: Pseudomonas aeruginosa, read-out: MIC, P. aeruginosa 35151. In short, it runs like this: as §1

Converted amounts (≈) assume the structure as drawn.

As to `C[C@@H](O)[C@H]1C(=O)N2C(C(=O)O)=C(S[C@H]3C[C@H](N[C@@H]4CC[C@@H](N)C4)C3)[C@H](C)[C@H]12` [Example 71, (4R,5S,6S)-3-(((1R,3R)-3-(((1R,3R)-3-aminocyclopentyl)amino)cyclobutyl)thio)-6-((R)-1-hydroxyethyl)-4-methyl-7-oxo-1-azabicyclo[3.2.0]hept-2-ene-2-carboxylic acid], the MIC (as a rule, the lowest concentration that inhibits growth of the organism) was 1 to 4 µg/mL (≈ 2.53 to 10.1 µM) in assay [1]; 8 to 32 µg/mL (≈ 20.2 to 80.9 µM) in assay [2]; less than 1 µg/mL in assay [3]; 1 to 4 µg/mL (≈ 2.53 to 10.1 µM) in the assay on S. aureus USA 300; 1 to 4 µg/mL (≈ 2.53 to 10.1 µM) in the assay on S. aureus USA 600; 8 to 32 µg/mL (≈ 20.2 to 80.9 µM) in assay [4]. The values for the minimal inhibitory concentration (MIC) (with P. aeruginosa Paeβ-17; in assay [5]) were 8 to 32 µg/mL (≈ 20.2 to 80.9 µM) and less than 1 µg/mL, respectively.
For `C[C@@H](O)[C@H]1C(=O)N2C(C(=O)O)=C(S[C@@H]3CCN(C[C@H]4CC[C@@H](N)CC4)C3)[C@H](C)[C@H]12` [Example 72, (4R,5S,6S)-3-(((R)-1-(((1S,4S)-4-aminocyclohexyl)methyl)pyrrolidin-3-yl)thio)-6-((R)-1-hydroxyethyl)-4-methyl-7-oxo-1-azabicyclo[3.2.0]hept-2-ene-2-carboxylic acid], the MIC in assay [1] was 8 to 32 µg/mL (≈ 18.9 to 75.5 µM); in assay [2] it was 8 to 32 µg/mL (≈ 18.9 to 75.5 µM); in assay [3], less than 1 µg/mL; in the assay with S. aureus USA 300, 1 to 4 µg/mL (≈ 2.36 to 9.44 µM); with S. aureus USA 600 it was 1 to 4 µg/mL (≈ 2.36 to 9.44 µM); in assay [4], 1 to 4 µg/mL (≈ 2.36 to 9.44 µM). Besides, the MIC in the assay on P. aeruginosa Paeβ-17 was 1 to 4 µg/mL (≈ 2.36 to 9.44 µM); in assay [5] it was less than 1 µg/mL.
On to `C[C@@H](O)[C@H]1C(=O)N2C(C(=O)O)=C(S[C@H]3C[C@H](N[C@H]4CC[C@H](NC(=N)N)C4)C3)[C@H](C)[C@H]12` [Example 73, (4R,5S,6S)-3-(((1S,3R)-3-(((1S,3S)-3-guanidinocyclopentyl)amino)cyclobutyl)thio)-6-((R)-1-hydroxyethyl)-4-methyl-7-oxo-1-azabicyclo[3.2.0]hept-2-ene-2-carboxylic acid], for which the MIC in assay [1] is 8 to 32 µg/mL (≈ 18.3 to 73.1 µM); in assay [2], 8 to 32 µg/mL (≈ 18.3 to 73.1 µM); in assay [3], less than 1 µg/mL; in the assay with S. aureus USA 300 it was 1 to 4 µg/mL (≈ 2.29 to 9.14 µM); in the assay on S. aureus USA 600, 1 to 4 µg/mL (≈ 2.29 to 9.14 µM); in assay [4], 1 to 4 µg/mL (≈ 2.29 to 9.14 µM). For the same molecule, the MIC in the assay with P. aeruginosa Paeβ-17 is 1 to 4 µg/mL (≈ 2.29 to 9.14 µM); in assay [5], less than 1 µg/mL.
For `C[C@@H](O)[C@H]1C(=O)N2C(C(=O)O)=C(S[C@H]3C[C@H](N[C@H]4CC[C@@H](N)C4)C3)[C@H](C)[C@H]12` [Example 74, (4R,5S,6S)-3-(((1S,3R)-3-(((1S,3R)-3-aminocyclopentyl)amino)cyclobutyl)thio)-6-((R)-1-hydroxyethyl)-4-methyl-7-oxo-1-azabicyclo[3.2.0]hept-2-ene-2-carboxylic acid], the MIC is 8 to 32 µg/mL (≈ 20.2 to 80.9 µM) in assay [1]; 8 to 32 µg/mL (≈ 20.2 to 80.9 µM) in assay [2]; less than 1 µg/mL in assay [3]; 8 to 32 µg/mL (≈ 20.2 to 80.9 µM) with S. aureus USA 300; 1 to 4 µg/mL (≈ 2.53 to 10.1 µM) in the assay with S. aureus USA 600; 8 to 32 µg/mL (≈ 20.2 to 80.9 µM) in assay [4]. Besides, the MIC is 1 to 4 µg/mL (≈ 2.53 to 10.1 µM) with P. aeruginosa Paeβ-17 and less than 1 µg/mL in assay [5].
On to `C[C@@H](O)[C@H]1C(=O)N2C(C(=O)O)=C(S[C@H]3C[C@@H](N[C@H]4CC[C@H](N)C4)C3)[C@H](C)[C@H]12` [Example 75, (4R,5S,6S)-3-(((1R,3S)-3-(((1S,3S)-3-aminocyclopentyl)amino)cyclobutyl)thio)-6-((R)-1-hydroxyethyl)-4-methyl-7-oxo-1-azabicyclo[3.2.0]hept-2-ene-2-carboxylic acid], for which the minimal inhibitory concentration (MIC) in assay [1] was 8 to 32 µg/mL (≈ 20.2 to 80.9 µM); in assay [2], 8 to 32 µg/mL (≈ 20.2 to 80.9 µM); in assay [3], less than 1 µg/mL; in the assay on S. aureus USA 300 it was 1 to 4 µg/mL (≈ 2.53 to 10.1 µM); in the assay with S. aureus USA 600 it was 1 to 4 µg/mL (≈ 2.53 to 10.1 µM); in assay [4], 1 to 4 µg/mL (≈ 2.53 to 10.1 µM). Also, the MIC in the assay with P. aeruginosa Paeβ-17 was 1 to 4 µg/mL (≈ 2.53 to 10.1 µM); in assay [5] it was less than 1 µg/mL.
As for `C[C@@H](O)[C@H]1C(=O)N2C(C(=O)O)=C(S[C@H]3C[C@@H](N[C@H]4CC[C@@H](N)C4)C3)[C@H](C)[C@H]12` [Example 76, (4R,5S,6S)-3-(((1R,3S)-3-(((1S,3R)-3-aminocyclopentyl)amino)cyclobutyl)thio)-6-((R)-1-hydroxyethyl)-4-methyl-7-oxo-1-azabicyclo[3.2.0]hept-2-ene-2-carboxylic acid], the MIC is 8 to 32 µg/mL (≈ 20.2 to 80.9 µM) in assay [1]; 8 to 32 µg/mL (≈ 20.2 to 80.9 µM) in assay [2]; less than 1 µg/mL in assay [3]; 1 to 4 µg/mL (≈ 2.53 to 10.1 µM) with S. aureus USA 300; 1 to 4 µg/mL (≈ 2.53 to 10.1 µM) in the assay with S. aureus USA 600; 1 to 4 µg/mL (≈ 2.53 to 10.1 µM) in assay [4]. Also, the MIC in the assay with P. aeruginosa Paeβ-17 is 1 to 4 µg/mL (≈ 2.53 to 10.1 µM); in assay [5] it was less than 1 µg/mL.
In the case of `C[C@@H](O)[C@H]1C(=O)N2C(C(=O)O)=C(S[C@H]3C[C@@H](N[C@@H]4CC[C@H](N)C4)C3)[C@H](C)[C@H]12` [Example 77, (4R,5S,6S)-3-(((1S,3S)-3-(((1R,3S)-3-aminocyclopentyl)amino)cyclobutyl)thio)-6-((R)-1-hydroxyethyl)-4-methyl-7-oxo-1-azabicyclo[3.2.0]hept-2-ene-2-carboxylic acid], the MIC was 8 to 32 µg/mL (≈ 20.2 to 80.9 µM) in assay [1]; 8 to 32 µg/mL (≈ 20.2 to 80.9 µM) in assay [2]; less than 1 µg/mL in assay [3]; 1 to 4 µg/mL (≈ 2.53 to 10.1 µM) in the assay with S. aureus USA 300; 1 to 4 µg/mL (≈ 2.53 to 10.1 µM) in the assay on S. aureus USA 600; 1 to 4 µg/mL (≈ 2.53 to 10.1 µM) in assay [4]. Also, the MIC with P. aeruginosa Paeβ-17 was 1 to 4 µg/mL (≈ 2.53 to 10.1 µM); in assay [5] it was less than 1 µg/mL.
For `C[C@@H](O)[C@H]1C(=O)N2C(C(=O)O)=C(S[C@H]3C[C@@H](N[C@@H]4CC[C@@H](N)C4)C3)[C@H](C)[C@H]12` [Example 78, (4R,5S,6S)-3-(((1S,3S)-3-(((1R,3R)-3-aminocyclopentyl)amino)cyclobutyl)thio)-6-((R)-1-hydroxyethyl)-4-methyl-7-oxo-1-azabicyclo[3.2.0]hept-2-ene-2-carboxylic acid], the MIC was 8 to 32 µg/mL (≈ 20.2 to 80.9 µM) in assay [1]; 8 to 32 µg/mL (≈ 20.2 to 80.9 µM) in assay [2]; less than 1 µg/mL in assay [3]; 1 to 4 µg/mL (≈ 2.53 to 10.1 µM) with S. aureus USA 300; 1 to 4 µg/mL (≈ 2.53 to 10.1 µM) in the assay on S. aureus USA 600; 1 to 4 µg/mL (≈ 2.53 to 10.1 µM) in assay [4]. Moreover, the MIC in the assay with P. aeruginosa Paeβ-17 was 1 to 4 µg/mL (≈ 2.53 to 10.1 µM); in assay [5], less than 1 µg/mL.
Consider `C[C@@H](O)[C@H]1C(=O)N2C(C(=O)O)=C(S[C@H]3C[C@H](N[C@@H]4CC[C@H](NC(=N)N)C4)C3)[C@H](C)[C@H]12` [Example 79, (4R,5S,6S)-3-(((1R,3R)-3-(((1R,3S)-3-guanidinocyclopentyl)amino)cyclobutyl)thio)-6-((R)-1-hydroxyethyl)-4-methyl-7-oxo-1-azabicyclo[3.2.0]hept-2-ene-2-carboxylic acid], for which the MIC in assay [1] was 8 to 32 µg/mL (≈ 18.3 to 73.1 µM); in assay [2], 8 to 32 µg/mL (≈ 18.3 to 73.1 µM); in assay [3], less than 1 µg/mL; in the assay on S. aureus USA 300, 1 to 4 µg/mL (≈ 2.29 to 9.14 µM); with S. aureus USA 600, 1 to 4 µg/mL (≈ 2.29 to 9.14 µM); in assay [4], 1 to 4 µg/mL (≈ 2.29 to 9.14 µM). The MIC with P. aeruginosa Paeβ-17 is 1 to 4 µg/mL (≈ 2.29 to 9.14 µM); in assay [5], less than 1 µg/mL.
